Measurements reported in patent US20110039877A1, “USE OF 3, 11B-CIS-DIHYDROTETRABENAZINE IN THE TREATMENT OF MULTIPLE SCLEROSIS AND AUTOIMMUNE MYELITIS” (Biovail Laboratories International (Barbados) S.R.L., priority 2007, published 2011).
Entries after “also recorded” stand apart in the source; their conditions may differ.

Assays:
DAT and VMAT2 in brain = conditions: conscious rat brain; cited from earlier work
[1] = test system: experimental autoimmune encephalomyelitis (EAE) induced with mouse spinal cord homogenate in CFA; assay: Experimental autoimmune encephalomyelitis (EAE) model of multiple sclerosis; format: in vivo, Biozzi mice; conditions: for protection against EAE (clinical disease score, weight loss): days -1 to 10, Biozzi mice; for overall effect on EAE disease: general statement, no dose given
Description: Groups of 10 Biozzi mice aged between 5 and 8 weeks of age were challenged in the flank with mouse spinal cord homogenate (SCH) in complete Freund's adjuvant (CFA) in order to induce EAE. Treatments were given according to the schedule below. Treatment (n=8 per group) Group A—vehicle control Group B—RU350 30 mg/kg days −1 to 10 once daily by oral gavage Group C—RU350 10 mg/kg days −1 to 10 twice daily by oral gavage Group D—Positive control drug A 20 mg/ml solution of SCH in PBS was prepared and mixed in an equal volume with CFA. The mixture was sonicated in a Branson 1200 sonicator for 15 minutes and then homogenised for three minutes. An amount of 1 mg in 100 μl was administered per mouse by subcutaneous injection at the base of tail. In addition, mice were given 200 ng pertussis toxin in 0.5 ml by intraperitoneal (ip) injection on day 0 and again 48 hours later. Mice were treated according to the outline above from day −1 to day 10. The compound of formula (Ia) (i.e. RUS350) was prepared daily by dissolving 15 mg of the compound (stored at −20° C.) in sterile distilled water to give 6 mg/ml solution. A dose of 100 μl was given by oral gavage daily to the group B mice (equivalent to 30 mg/kg per 20 g mouse). For group C mice, 1 ml of the […] stock was further diluted 1:3 in sterile distilled water, and a dose of 100 μl was given orally twice daily (equivalent to 2×10 mg/kg per 20 g mouse). Distilled water served as the vehicle control for the mice in group A. Group D mice were given a dose of 5 mg/kg dexamethasone (100 μg in 100 μl per 20 g mouse) on days 3-7 and days 10-12. Moribund animals were euthanised according to Home Office regulations and all remaining animals were euthanized at day 28 post-induction. At termination, brains and spinal cords were taken from all animals and fixed for histopathology examination. Mice were weighed prior to EAE induction (Day 0) and then daily from day 5 until termination. Clinical disease was monitored from day 5 and scored according the following system: [table]

COc1cc2c(cc1O[11CH3])CCN1C[C@@H](CC(C)C)[C@H](O)C[C@H]21 (single isomer, unassigned) [(+)-α-[^11C]dihydrotetrabenazine]
distribution of radio-labelled isomer in the brain (DAT and VMAT2 in brain): accumulated in regions of the brain associated with higher concentrations of the neuronal membrane dopamine transporter (DAT) and the vesicular monoamine transporter (VMAT2)

COc1cc2c(cc1OC)[C@H]1C[C@H](O)[C@@H](CC(C)C)CN1CC2 (single isomer, unassigned) [compound of formula (Ia)]
protection against EAE (clinical disease score, weight loss) ([1]; 10 mg/kg twice daily by oral gavage): very high level of protection
protection against EAE (clinical disease score, weight loss) ([1]; 30 mg/kg once daily by oral gavage): moderate degree of protection
overall effect on EAE disease [1]: profound effect on the disease; also recorded: levels of protection similar to that provided by treatment with steroids
overall effect on EAE disease ([1]; listed as formula (Ia)): inhibits the development of autoimmune encephalomyelitis

COc1cc2c(cc1O[11CH3])CCN1C[C@H](CC(C)C)[C@@H](O)C[C@@H]21 [(−)-α-[^11C]dihydrotetrabenazine]
distribution of radio-labelled isomer in the brain (DAT and VMAT2 in brain): almost uniformly distributed in the brain

C[C@@H]1C[C@H]2[C@@H]3CCC4=CC(=O)C=C[C@]4(C)[C@@]3(F)[C@@H](O)C[C@]2(C)[C@@]1(O)C(=O)CO [steroid, dexamethasone, reference compound]
inhibition of severe EAE associated with weight loss ([1]; positive control, 5 mg/kg on days 3-7 and days 10-12, Biozzi mice): markedly inhibited this effect
